The source of these data is BindingDB's records for doi:10.1016/j.chembiol.2011.12.010 (Boston College, 2012).

For orientation: IC50 means the midpoint of a concentration-inhibition curve.

Assay in all cases: In Vitro Enzyme Assay
Assay [1] concerns the target Dual specificity calcium/calmodulin-dependent 3',5'-cyclic nucleotide phosphodiesterase 1C (Human, UniProt Q14123).
Assay [2] has as its target cGMP-inhibited 3',5'-cyclic phosphodiesterase 3B (Homo sapiens, UniProt Q13370).
In assay [3] the target is Cone cGMP-specific 3',5'-cyclic phosphodiesterase subunit alpha' (Homo sapiens, UniProt P51160).
Sequence of Cone cGMP-specific 3',5'-cyclic phosphodiesterase subunit alpha' (P51160 whole entry): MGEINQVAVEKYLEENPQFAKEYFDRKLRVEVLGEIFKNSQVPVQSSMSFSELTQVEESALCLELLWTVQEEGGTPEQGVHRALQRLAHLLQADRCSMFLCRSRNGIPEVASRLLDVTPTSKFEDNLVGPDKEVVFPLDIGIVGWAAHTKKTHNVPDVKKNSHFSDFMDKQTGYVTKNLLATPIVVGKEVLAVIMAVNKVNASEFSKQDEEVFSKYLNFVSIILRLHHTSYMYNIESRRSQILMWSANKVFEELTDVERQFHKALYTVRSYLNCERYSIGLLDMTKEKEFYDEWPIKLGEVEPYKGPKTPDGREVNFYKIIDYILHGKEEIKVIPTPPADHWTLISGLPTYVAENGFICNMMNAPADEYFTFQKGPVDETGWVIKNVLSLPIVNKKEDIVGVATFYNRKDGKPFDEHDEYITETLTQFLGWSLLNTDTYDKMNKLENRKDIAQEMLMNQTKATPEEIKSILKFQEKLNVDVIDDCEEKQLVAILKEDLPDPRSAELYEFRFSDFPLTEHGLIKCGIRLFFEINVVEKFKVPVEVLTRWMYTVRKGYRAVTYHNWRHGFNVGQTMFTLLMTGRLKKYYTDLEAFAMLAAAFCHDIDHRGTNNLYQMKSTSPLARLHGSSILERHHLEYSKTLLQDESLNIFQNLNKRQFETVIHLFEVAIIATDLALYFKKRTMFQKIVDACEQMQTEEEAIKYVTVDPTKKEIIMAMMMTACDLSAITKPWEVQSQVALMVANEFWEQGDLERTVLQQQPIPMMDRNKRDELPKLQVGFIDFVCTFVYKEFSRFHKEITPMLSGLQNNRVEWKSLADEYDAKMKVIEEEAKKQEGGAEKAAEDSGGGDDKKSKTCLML
Assay [4] deals with T1, cGMP-dependent 3',5'-cyclic phosphodiesterase (Rattus norvegicus, UniProt Q01062).
T1 sequence (Q01062 whole entry): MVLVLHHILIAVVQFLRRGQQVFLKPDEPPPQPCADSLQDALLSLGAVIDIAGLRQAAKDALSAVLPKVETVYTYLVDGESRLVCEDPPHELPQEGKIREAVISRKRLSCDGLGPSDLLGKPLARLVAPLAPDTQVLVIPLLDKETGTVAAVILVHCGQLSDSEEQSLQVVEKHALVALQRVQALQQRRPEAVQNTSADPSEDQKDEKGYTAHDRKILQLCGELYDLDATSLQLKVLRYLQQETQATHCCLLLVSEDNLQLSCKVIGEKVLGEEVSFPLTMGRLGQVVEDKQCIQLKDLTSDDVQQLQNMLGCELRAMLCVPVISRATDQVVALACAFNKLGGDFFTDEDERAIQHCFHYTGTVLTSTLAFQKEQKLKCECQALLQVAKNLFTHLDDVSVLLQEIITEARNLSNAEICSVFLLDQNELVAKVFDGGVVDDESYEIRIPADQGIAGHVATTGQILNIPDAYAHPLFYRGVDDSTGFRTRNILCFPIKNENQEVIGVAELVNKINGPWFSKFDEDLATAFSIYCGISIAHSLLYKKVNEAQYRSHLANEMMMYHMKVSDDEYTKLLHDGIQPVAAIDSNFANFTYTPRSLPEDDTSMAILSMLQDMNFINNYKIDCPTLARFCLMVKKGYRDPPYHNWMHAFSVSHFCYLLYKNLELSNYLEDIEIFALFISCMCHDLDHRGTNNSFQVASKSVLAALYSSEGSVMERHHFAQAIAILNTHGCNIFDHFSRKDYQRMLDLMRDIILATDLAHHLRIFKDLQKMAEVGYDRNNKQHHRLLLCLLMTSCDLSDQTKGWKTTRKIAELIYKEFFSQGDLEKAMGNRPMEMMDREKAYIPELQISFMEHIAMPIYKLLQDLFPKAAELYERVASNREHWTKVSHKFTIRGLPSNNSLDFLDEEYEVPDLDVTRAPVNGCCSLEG

The target of assay [5] is Dual 3',5'-cyclic-AMP and -GMP phosphodiesterase 11A (Homo sapiens, UniProt Q9HCR9).
Sequence of Dual 3',5'-cyclic-AMP and -GMP phosphodiesterase 11A (Q9HCR9 whole entry): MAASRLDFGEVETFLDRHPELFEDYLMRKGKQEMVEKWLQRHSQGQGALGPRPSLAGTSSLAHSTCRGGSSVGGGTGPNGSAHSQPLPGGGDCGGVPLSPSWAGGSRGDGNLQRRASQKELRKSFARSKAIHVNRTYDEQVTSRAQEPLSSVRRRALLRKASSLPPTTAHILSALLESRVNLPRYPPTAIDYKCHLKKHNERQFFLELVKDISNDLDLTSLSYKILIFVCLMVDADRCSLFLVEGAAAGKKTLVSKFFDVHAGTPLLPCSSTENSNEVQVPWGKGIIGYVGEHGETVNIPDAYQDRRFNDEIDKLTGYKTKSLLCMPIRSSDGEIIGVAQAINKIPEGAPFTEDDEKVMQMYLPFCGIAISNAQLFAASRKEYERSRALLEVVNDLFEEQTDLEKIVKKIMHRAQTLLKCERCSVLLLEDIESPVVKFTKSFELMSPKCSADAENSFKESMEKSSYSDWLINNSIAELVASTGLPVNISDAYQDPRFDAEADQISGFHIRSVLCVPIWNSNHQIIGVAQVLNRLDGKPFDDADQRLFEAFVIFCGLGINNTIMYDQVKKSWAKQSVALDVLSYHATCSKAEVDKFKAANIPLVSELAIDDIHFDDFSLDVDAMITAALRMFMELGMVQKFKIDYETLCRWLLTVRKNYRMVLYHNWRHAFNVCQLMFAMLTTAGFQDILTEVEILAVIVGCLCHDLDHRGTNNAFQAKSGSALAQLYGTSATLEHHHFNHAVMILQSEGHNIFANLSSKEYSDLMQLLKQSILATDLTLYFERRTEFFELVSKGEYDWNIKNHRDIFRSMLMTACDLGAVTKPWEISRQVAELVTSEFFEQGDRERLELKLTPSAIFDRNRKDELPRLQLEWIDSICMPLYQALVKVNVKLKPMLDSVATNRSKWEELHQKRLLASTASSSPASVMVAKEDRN
For assay [6], the target named is High affinity cAMP-specific 3',5'-cyclic phosphodiesterase 7A (Homo sapiens, UniProt Q13946).
Assay [7] addresses cAMP and cAMP-inhibited cGMP 3',5'-cyclic phosphodiesterase 10A (Homo sapiens, UniProt Q9Y233).

Sequence of cGMP-inhibited 3',5'-cyclic phosphodiesterase 3B (Q13370 whole entry): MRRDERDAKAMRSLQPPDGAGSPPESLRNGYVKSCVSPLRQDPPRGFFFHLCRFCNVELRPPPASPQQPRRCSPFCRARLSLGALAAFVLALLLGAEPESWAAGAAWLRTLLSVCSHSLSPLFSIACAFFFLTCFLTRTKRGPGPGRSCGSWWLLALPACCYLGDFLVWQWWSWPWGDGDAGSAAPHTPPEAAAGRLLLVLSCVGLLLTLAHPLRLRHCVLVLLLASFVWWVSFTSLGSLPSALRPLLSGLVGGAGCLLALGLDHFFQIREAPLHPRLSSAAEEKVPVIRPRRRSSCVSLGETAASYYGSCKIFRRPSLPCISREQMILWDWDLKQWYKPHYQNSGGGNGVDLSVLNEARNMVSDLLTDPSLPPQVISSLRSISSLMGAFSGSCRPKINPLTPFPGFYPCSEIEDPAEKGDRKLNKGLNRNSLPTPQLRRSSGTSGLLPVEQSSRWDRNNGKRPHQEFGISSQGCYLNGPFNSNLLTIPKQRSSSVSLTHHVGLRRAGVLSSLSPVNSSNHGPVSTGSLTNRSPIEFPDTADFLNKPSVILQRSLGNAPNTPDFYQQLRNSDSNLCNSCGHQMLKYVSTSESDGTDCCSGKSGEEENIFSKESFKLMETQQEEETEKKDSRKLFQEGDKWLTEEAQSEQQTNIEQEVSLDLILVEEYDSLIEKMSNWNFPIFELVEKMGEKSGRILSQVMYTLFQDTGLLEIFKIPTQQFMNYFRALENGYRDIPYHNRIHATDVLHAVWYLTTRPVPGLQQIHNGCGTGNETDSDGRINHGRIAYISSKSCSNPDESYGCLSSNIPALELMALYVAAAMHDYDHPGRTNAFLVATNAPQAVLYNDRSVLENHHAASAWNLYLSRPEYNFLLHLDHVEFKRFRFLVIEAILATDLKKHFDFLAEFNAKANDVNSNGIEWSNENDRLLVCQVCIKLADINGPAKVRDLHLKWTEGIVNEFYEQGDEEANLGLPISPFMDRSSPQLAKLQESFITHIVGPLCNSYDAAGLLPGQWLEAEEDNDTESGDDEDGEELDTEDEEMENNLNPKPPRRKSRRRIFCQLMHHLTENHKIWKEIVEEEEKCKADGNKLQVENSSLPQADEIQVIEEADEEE
Sequence of Dual specificity calcium/calmodulin-dependent 3',5'-cyclic nucleotide phosphodiesterase 1C (Q14123 whole entry): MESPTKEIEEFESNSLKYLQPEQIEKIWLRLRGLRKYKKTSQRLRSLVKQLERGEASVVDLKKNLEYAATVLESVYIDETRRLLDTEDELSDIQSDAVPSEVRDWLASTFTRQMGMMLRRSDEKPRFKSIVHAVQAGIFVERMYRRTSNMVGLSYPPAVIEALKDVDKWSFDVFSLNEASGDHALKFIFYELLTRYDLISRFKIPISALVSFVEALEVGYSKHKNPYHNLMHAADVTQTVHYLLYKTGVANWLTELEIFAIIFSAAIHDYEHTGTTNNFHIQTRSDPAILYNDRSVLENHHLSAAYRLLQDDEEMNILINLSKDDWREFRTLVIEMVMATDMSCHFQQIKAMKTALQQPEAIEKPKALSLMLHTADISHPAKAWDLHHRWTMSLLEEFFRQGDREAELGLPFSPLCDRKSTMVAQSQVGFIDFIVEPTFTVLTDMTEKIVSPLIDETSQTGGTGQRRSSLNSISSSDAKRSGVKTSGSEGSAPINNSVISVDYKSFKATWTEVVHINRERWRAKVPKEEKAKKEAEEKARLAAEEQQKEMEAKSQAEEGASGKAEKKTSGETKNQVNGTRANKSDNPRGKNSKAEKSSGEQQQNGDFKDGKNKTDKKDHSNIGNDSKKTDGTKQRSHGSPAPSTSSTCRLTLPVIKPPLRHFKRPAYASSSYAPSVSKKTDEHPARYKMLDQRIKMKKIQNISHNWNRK
Sequence of cAMP and cAMP-inhibited cGMP 3',5'-cyclic phosphodiesterase 10A (Q9Y233 whole entry): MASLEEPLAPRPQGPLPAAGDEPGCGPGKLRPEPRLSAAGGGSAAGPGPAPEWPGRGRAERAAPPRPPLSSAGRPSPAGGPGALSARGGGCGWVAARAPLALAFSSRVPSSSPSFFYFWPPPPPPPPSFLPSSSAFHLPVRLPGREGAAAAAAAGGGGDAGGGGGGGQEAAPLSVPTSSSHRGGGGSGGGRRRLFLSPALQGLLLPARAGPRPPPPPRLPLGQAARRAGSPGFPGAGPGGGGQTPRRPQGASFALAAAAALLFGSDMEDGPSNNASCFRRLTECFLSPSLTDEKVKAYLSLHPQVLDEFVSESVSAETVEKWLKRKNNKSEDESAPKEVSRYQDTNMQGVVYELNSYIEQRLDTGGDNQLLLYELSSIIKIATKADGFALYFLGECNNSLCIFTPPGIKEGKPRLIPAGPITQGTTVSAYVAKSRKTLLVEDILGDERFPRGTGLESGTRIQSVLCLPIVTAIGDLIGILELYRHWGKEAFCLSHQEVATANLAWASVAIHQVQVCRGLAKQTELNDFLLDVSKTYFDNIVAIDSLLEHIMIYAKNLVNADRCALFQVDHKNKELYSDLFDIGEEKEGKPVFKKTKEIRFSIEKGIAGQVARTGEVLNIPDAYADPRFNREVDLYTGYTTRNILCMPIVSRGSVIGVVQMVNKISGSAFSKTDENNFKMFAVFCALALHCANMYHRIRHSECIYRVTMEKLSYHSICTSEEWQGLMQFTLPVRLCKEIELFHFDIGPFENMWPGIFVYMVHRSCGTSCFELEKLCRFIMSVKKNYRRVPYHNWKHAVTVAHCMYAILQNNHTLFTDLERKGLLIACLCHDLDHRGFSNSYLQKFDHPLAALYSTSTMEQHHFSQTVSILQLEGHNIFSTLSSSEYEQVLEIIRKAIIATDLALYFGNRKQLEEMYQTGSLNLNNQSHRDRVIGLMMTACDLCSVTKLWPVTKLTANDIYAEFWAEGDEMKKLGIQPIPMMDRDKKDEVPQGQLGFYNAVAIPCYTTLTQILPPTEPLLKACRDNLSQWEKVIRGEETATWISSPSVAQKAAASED

In the case of `Cc1ccccc1Nc1ncnc2c1c(-c1ccccc1)cn2-c1ccc(F)cc1`, the IC50 in assay [1] and in assay [2] was > 100 µM in each case.

For the compound `CCN(CC)C(=O)c1cc(-c2cccs2)nc2c1c(C)nn2-c1ccccc1C` [BC11-15], the IC50 in assay [1] and in assay [2] was > 100 µM in each case.

For the compound `CCCCSc1nc2c(c(=O)n1-c1ccccc1)SCC2` [BC11-38-1], the concentration for half-maximal inhibition (IC50) in assay [2] was > 100 µM.

Consider `CCC(C)Sc1nc2c(c(=O)n1-c1ccccc1)SCC2` (stereo not given) [BC11-38-2], for which the IC50 was 51.2 µM in assay [3], > 100 µM in assay [1], 18.4 µM in assay [4] and > 100 µM in assay [2].

Regarding `CCCSc1nc2c(c(=O)n1-c1ccc(C)cc1)SCC2` [BC11-38-3], the IC50 was 7.5 µM in assay [5], > 100 µM in assay [1], 21.3 µM in assay [6] and > 100 µM in assay [2].

`CCCSc1nc2c(c(=O)n1-c1ccccc1OC)SCC2` [BC11-38-4]: the IC50 is 9.9 µM in assay [5], > 100 µM in assay [1], 5.8 µM in assay [7] and > 100 µM in assay [2].

Take `CCCSc1nc2c(c(=O)n1-c1ccccc1)SCC2` [BC11-38]: the IC50 in assay [1] and in assay [2] was > 100 µM each time.

Turning to `COc1ccc2c(c1)sc1nc(=O)n(Cc3ccccc3)c(=O)n12` [US9173884, BC11-19-1], half-maximal inhibition in assay [5] (IC50) required 2 µM.
